Columns and labels:
Format in all cases: functional
Details in all cases: read-out: DIZ
Staphylococcus aureus [1] = experiment: Antibacterial activity against clinical isolates of Staphylococcus aureus at 0.5 mg after overnight incubation by agar well diffusion method
Bacillus subtilis = experiment: Antibacterial activity against clinical isolates of Bacillus subtilis at 0.5 mg after overnight incubation by agar well diffusion method
[2] = system: Staphylococcus epidermidis; experiment: Antibacterial activity against clinical isolates of Staphylococcus epidermidis at 0.5 mg after overnight incubation by agar well diffusion method
Pseudomonas aeruginosa [3] = experiment: Antibacterial activity against clinical isolates of Pseudomonas aeruginosa at 0.5 mg after overnight incubation by agar well diffusion method
Escherichia coli [4] = experiment: Antibacterial activity against clinical isolates of Escherichia coli at 0.5 mg after overnight incubation by agar well diffusion method
Klebsiella pneumoniae [5] = experiment: Antibacterial activity against clinical isolates of Klebsiella pneumoniae at 0.5 mg after overnight incubation by agar well diffusion method
Staphylococcus aureus [6] = experiment: Antibacterial activity against clinical isolates of Staphylococcus aureus at 0.05 mg after overnight incubation by agar well diffusion method
Pseudomonas aeruginosa [7] = experiment: Antibacterial activity against clinical isolates of Pseudomonas aeruginosa at 0.05 mg after overnight incubation by agar well diffusion method
Escherichia coli [8] = experiment: Antibacterial activity against clinical isolates of Escherichia coli at 0.05 mg after overnight incubation by agar well diffusion method
Klebsiella pneumoniae [9] = experiment: Antibacterial activity against clinical isolates of Klebsiella pneumoniae at 0.05 mg after overnight incubation by agar well diffusion method

SMILES | zone of inhibition at 500 µg/disc (Staphylococcus aureus [1]) | zone of inhibition at 500 µg/disc (Bacillus subtilis) | zone of inhibition at 500 µg/disc [2] | zone of inhibition at 500 µg/disc (Pseudomonas aeruginosa [3]) | zone of inhibition at 500 µg/disc (Escherichia coli [4]) | zone of inhibition at 500 µg/disc (Klebsiella pneumoniae [5]) | zone of inhibition at 50 µg/disc (Staphylococcus aureus [6]) | zone of inhibition at 50 µg/disc (Pseudomonas aeruginosa [7]) | zone of inhibition at 50 µg/disc (Escherichia coli [8]) | zone of inhibition at 50 µg/disc (Klebsiella pneumoniae [9])
COc1ccc2cc([C@H](C)c3nnc(SCc4cn(-c5ccccc5)nn4)o3)ccc2c1 | 14 mm | 14 mm | 15 mm | 12 mm | 13 mm | 12 mm |  |  |  | 
CC(C)Cc1ccc(C(C)c2nnc(SCc3cn(CC(=O)Nc4ccc(Cl)cc4)nn3)o2)cc1 (racemic) | 11 mm | 16 mm | 15 mm | 14 mm | 15 mm | 15 mm |  |  |  | 
CC(C)Cc1ccc(C(C)c2nnc(SCc3cn(CC(=O)Nc4cccc(Cl)c4)nn3)o2)cc1 (racemic) | 14 mm | 12 mm | 13 mm | 15 mm | 12 mm | 11 mm |  |  |  | 
COc1ccc2cc([C@H](C)c3nnc(SCc4cn(CC(=O)Nc5c(C)cccc5C)nn4)o3)ccc2c1 | 13 mm | 15 mm | 12 mm | 11 mm | 11 mm | 9 mm |  |  |  | 
COc1ccc2cc([C@H](C)c3nnc(SCc4cn(CC(=O)Nc5ccccc5C)nn4)o3)ccc2c1 | 13 mm | 12 mm | 15 mm | 14 mm | 10 mm | 13 mm |  |  |  | 
NCC[C@H](O)C(=O)N[C@@H]1C[C@H](N)[C@@H](O[C@H]2O[C@H](CN)[C@@H](O)[C@H](O)[C@H]2O)[C@H](O)[C@H]1O[C@H]1O[C@H](CO)[C@@H](O)[C@H](N)[C@H]1O [AMIKACIN] |  |  |  |  |  |  | 23 mm | 22 mm | 20 mm | 23 mm
CC(C)Cc1ccc(C(C)c2nnc(SCc3cn(-c4ccccc4)nn3)o2)cc1 (racemic) | 10 mm | 11 mm | 9 mm | 11 mm | 10 mm | 10 mm |  |  |  | 
COc1ccc2cc([C@H](C)c3nnc(SCc4cn(CC(=O)Nc5cccc(Cl)c5)nn4)o3)ccc2c1 | 12 mm | 14 mm | 11 mm | 13 mm | 12 mm | 10 mm |  |  |  | 
COc1ccc2cc([C@H](C)c3nnc(SCc4cn(CC(=O)Nc5ccccc5Cl)nn4)o3)ccc2c1 | 15 mm | 15 mm | 16 mm | 14 mm | 13 mm | 14 mm |  |  |  | 
CC(C)Cc1ccc(C(C)c2nnc(SCc3cn(CC(=O)Nc4ccccc4[N+](=O)[O-])nn3)o2)cc1 (racemic) | 11 mm | 10 mm | 10 mm | 9 mm | 11 mm | 9 mm |  |  |  | 
Cc1ccccc1NC(=O)Cn1cc(CSc2nnc(C(C)c3ccc(CC(C)C)cc3)o2)nn1 (racemic) | 13 mm | 11 mm | 13 mm | 14 mm | 13 mm | 13 mm |  |  |  | 
